± gives the expanded uncertainty stated by the source.
Conditions: Crystal; DTA

Row | Normal melting temperature [°C] | SMILES
1 | 605 ± 1 | [Cl-].[Li+] [lithium chloride]
2 | 772 ± 1 | [Cl-].[K+] [potassium chloride]
3 | 778 ± 1 | [Cl][Pr]([Cl])[Cl] [praseodymium(III) chloride]
